# Key:
# Maize coleoptiles = assay: Effect of FB1 and AP1 on maize coleoptiles (injury evaluation); parameters: key to Injury or lack thereof of maize coleoptiles: + = brown necrotic discoloration of coleoptile; − = no symptoms (same as water control); details: for Injury or lack thereof of maize coleoptiles: 2 days dark at 28° C. then 3 days light
# Method: Maize coleoptiles from 4 day dark-grown germinated maize seeds were excised above the growing point and placed in 96-well microliter plates in the presence of 60 microliters of sterile distilled water containing FB1 or AP1 at approximately equimolar concentrations of 1.5, 0.5, 0.15, 0.05, 0.015, 0.005, 0.0015, or 0.0005 millimolar, along with water controls. After 2 days in the dark at 28° C. the coleoptiles were placed in the light and incubated another 3 days.
# BMS cells = assay: Effect of FB1 and AP1 on growth of maize tissue cultured cells (Black Mexican Sweet, BMS); assay type: cell-based; details: for concentration at which growth of BMS cells was inhibited: 1 week, liquid culture, compared to water control wells
# Method: FB1 or AP1 at various concentrations was added to suspensions of BMS cells growing in liquid culture medium in 96-well polystyrene plates. After 1 week the cell density in wells was observed under low power magnification and growth of toxin-treated wells was compared to control wells that received water. […] This represents an approximate 100-fold difference in toxicity to maize tissue-cultured cells. […] AP1 was not tested in that study, however.
# Lemna tissues = details: Vesonder et al. (1992); cited from earlier work
# tomato = details: Lamprecht et al. (1994); cited from earlier work
# maize callus = details: solid medium; Van Asch et al. (1992); cited from earlier work
Compound,Injury or lack thereof of maize coleoptiles (Maize coleoptiles; 1.5 mM),Injury or lack thereof of maize coleoptiles (Maize coleoptiles; .0005 mM),Injury or lack thereof of maize coleoptiles (Maize coleoptiles; .0015 mM),Injury or lack thereof of maize coleoptiles (Maize coleoptiles; .005 mM),Injury or lack thereof of maize coleoptiles (Maize coleoptiles; .015 mM),Injury or lack thereof of maize coleoptiles (Maize coleoptiles; .05 mM),Injury or lack thereof of maize coleoptiles (Maize coleoptiles; .15 mM),Injury or lack thereof of maize coleoptiles (Maize coleoptiles; .5 mM),difference in toxicity between FB1 and AP1 to maize coleoptiles (Maize coleoptiles; AP1 less toxic than FB1) [fold],concentration at which growth of BMS cells was inhibited (BMS cells) [nM],difference in toxicity to maize tissue-cultured cells (FB1 vs AP1) (BMS cells; AP1 less toxic than FB1) [fold],AP1 less toxic (than FB1) in Lemna tissues (Lemna tissues),reduction in toxicity to tomato by AP1 versus FB1 (tomato) [fold],concentration giving significant inhibition of maize callus (maize callus) [nM]
CCCC[C@@H](C)[C@@H](O)[C@@H](O)C[C@@H](C)C[C@H](O)CCCC[C@@H](O)C[C@H](O)[C@H](C)N [AP1],+,−,−,−,−,−,−,−,≥ 30,40000,~100,approximately 40 fold,~100,
"CCCC[C@@H](C)[C@@H](OC(=O)C[C@@H](CC(=O)O)C(=O)O)[C@H](C[C@@H](C)C[C@H](O)CCCC[C@@H](O)C[C@H](O)[C@H](C)N)OC(=O)C[C@@H](CC(=O)O)C(=O)O [FB1, fumonisin B1]",+,−,−,−,,+,+,+,,400,,,,1400
